Assay results as given in US10294272B2, “Peptides with antagonistic activities against natural CXCR4” (Pharis Biotec GmbH, priority 2013, dated 2019).
No end group written: not given here.

Columns and labels:
X4 HIV-1 strains = tested on: X4 HIV-1 strains
Experimental: (§1) Antiviral screening was performed using the X4 HIV-1 NL4-3 molecular clone.
(§2) HIV-1, HIV-2 and SIV molecular clones differing in coreceptor tropism were generated by transient transfection of 293T cells with proviral DNA by the calcium phosphate method (CalPhos™ Mammalian Transfection Kit, Clon-tech). After overnight incubation, the transfection mixture was replaced by DMEM medium supplemented with 10% FCS, and virus stocks were harvested 48 hrs post-transfection. Subsequently, the culture supernatant was centrifuged for 5 min at 3000 rpm to remove cell debris. The resulting virus stock was quantified by p24 (HIV) or p27 (SIV) antigen ELISA. Virus stocks were either used immediately or stored in aliquots at −80° C.
(§3) TZM-bl reporter cells containing the LacZ reporter gene under the control of the HIV-1 promoter were seeded in 96-well F-bottom microtiter plates (Greiner Bio-One). On the following day, the cells were preincubated with various dilutions of the peptide of SEQ ID NO 16 or its derivatives for 1 hour and subsequently infected with HIV-1, HIV-2, and SIV. Infection rates were determined after 2 days using the one-step Tropix Gal-Screen Kit, as recommended by the manufacturer.

X4 tropic HIV-1 NL4-3 = conditions: blocking X4 tropic HIV-1 NL4-3 infection
Experimental: as §1, §2, §3

[1] = tested on: wild-type (wt) HIV-1 NL4-3 in PBMCs; assay: PBMC infection assay; type: cell-based; conditions: concentrations ≥4 μg/ml
Experimental: Peripheral blood mononuclear cells were isolated from Buffy coat derived from the DRK-Blutspendedienst Baden-Württemberg-Hessen using Ficoll density centrifugation. 1×10^6 PBMC per ml were stimulated with 1 μg/ml phytohemagglutinine (PHA, Oxoid, #3085280) and 10 ng/ml Interleukin 2 (IL-2, Strathmann, #9511192) for three days. Thereafter, cells were pelleted and resuspended in IL-2 containing medium. 2×10^5 PBMC were seeded in 96 well F-bottom microtiter plates, peptides were added and cells were infected with […] p24 antigen of X4 or R5 tropic viruses. Supernatants containing progeny virus were taken at every 2-3 days post infection. Virus production was measured by p24 antigen ELISA (NIH AIDS reagent program). The mean p24 antigen values (ng/ml) were derived from triplicate infections±standard deviation.

X4 HIV-2 strains = assay: TZM-bl infection assay, X4 HIV-2; type: cell-based; conditions: effects relatively modest
Experimental: as §2, §3

SIV strains = assay: TZM-bl infection assay, SIV; type: cell-based; conditions: effects relatively modest
Experimental: as §2, §3

CXCR4 = biological target: T1, CXCR4 (Mus musculus, UniProt P70658); assay: Progenitor cell mobilization in mice; type: in vivo; conditions: single i.p. administration
T1 construct: from tissue; host or cells: live mice (C57Bl/6J for mobilization)
Experimental: C57B1/6J mice (Janvier, Le Genest St. Isle, F R) were housed in the conventional vivarium of the Goethe-University Medical Center, Frankfurt, with food and water ad libitum. Mice received i.p. injections of 200 μL water or normal saline containing 10 mg/mL the peptide of SEQ ID NO 16. Blood was drawn at the indicated times following injection from the check pouch after careful skin disinfection. After hypotonic lysis, leukocytes were incubated in duplicate in cytokine-replete commercially available semi-solid media (3434, Stem Cell Technologies, Vancouver, B C) under standard conditions. CFU—C were scored on day 7, as described (Bönig et al., 2006). CFU—C were normalized to the blood volume incubated. All animal studies were done with permission of the local IACUC, in agreement with AAALAC guidelines.

Staphylococus aureus = assay: Antibacterial activity against Staphylococcus; type: cell-based

T1 sequence (P70658 whole entry): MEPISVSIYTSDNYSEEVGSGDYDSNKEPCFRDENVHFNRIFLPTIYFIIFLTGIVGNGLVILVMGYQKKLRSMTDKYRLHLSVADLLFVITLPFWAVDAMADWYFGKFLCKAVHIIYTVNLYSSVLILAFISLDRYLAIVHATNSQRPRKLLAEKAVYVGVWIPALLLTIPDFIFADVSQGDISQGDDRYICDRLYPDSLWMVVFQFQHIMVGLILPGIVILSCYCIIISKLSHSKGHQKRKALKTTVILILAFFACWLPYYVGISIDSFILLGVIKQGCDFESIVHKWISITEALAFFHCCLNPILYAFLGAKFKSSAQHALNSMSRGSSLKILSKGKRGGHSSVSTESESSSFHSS

## LVRYTKKVPQVSTPTL [Derivative 408-423, LVRYTKKVPQVSTPTL]
X4 HIV-1 strains; mean over X4 HIV-1 strains, chemically synthesized peptide
  mean 50% inhibitory concentration (IC50), infection by X4 HIV-1 strains: 15.8 µg/mL
X4 HIV-1 strains; pretreatment of target cells
  HIV infection after pretreatment of viral target cells (not of virions): effective reduction
X4 HIV-1 strains; read-out: mean 50% inhibitory concentration (IC50), infection by X4 HIV-1 strains, corresponding to 15.8 μg/ml
  IC50: 8.6 µM
X4 tropic HIV-1 NL4-3
  IC50: 8.63 µM
[1]
  Replication of wild-type HIV-1 NL4-3 in PBMCs: markedly suppressed
X4 HIV-2 strains
  infection by X4 HIV-2 strains: inhibits infection
SIV strains
  infection by SIV strains: inhibits infection
CXCR4
  mobilization of progenitor cells and neutrophils into the periphery: significant mobilization
Staphylococus aureus
  effects against Staphylococus aureus: only modest effects
